Counter-ions that a name gives are not always drawn. Like-named read-outs stand apart in the source and are kept apart here.
Test system: Acinetobacter baumannii ATCC17978
Assay: Antimicrobial susceptibility testing: 90% growth inhibitory concentration (IC90) determination, Iso-Sensitest broth
Type: cell-based
In short: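 A. baumannii ATCC17978 grown in Iso-Sensitest broth across 10 compound concentrations at 35±2 °C.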

[1] = 90% growth inhibitory concentration, Acinetobacter baumannii ATCC17978, Iso-Sensitest broth, OD 600 nm over 16 h, read-out: ATCC17978 IC90
[2] = Acinetobacter baumannii, ATCC17978, 16 h, read-out: ATCC17978 IC90, 90% growth inhibitory concentration, Acinetobacter baumannii ATCC17978, Iso-Sensitest broth, OD 600 nm over 16 h

IC90 [1] [µM] | SMILES | IC90 [2] [µM]
2.8 | Cc1cc(Nc2nccn3c(-c4ccc(OCC#CCN)c(F)c4)cnc23)ccc1C(=O)N1CCC(CNC(=O)OC(C)(C)C)CC1 [Example 274, tert-butyl N-[[1-[4-[[3-[4-(4-aminobut-2-ynoxy)-3-fluorophenyl]imidazo[1,2-a]pyrazin-8-yl]amino]-2-methylbenzoyl]piperidin-4-yl]methyl]carbamate] | 
 | Cc1cc(Nc2nccn3c(-c4ccc(OC(F)F)cc4)cnc23)ccc1C(=O)N1CCN(C(=O)[C@H](N)CCC(=O)O)CC1 [Example 275, (4R)-4-amino-5-[4-[4-[[3-[4-(difluoromethoxy)phenyl]imi-dazo[1,2-a]pyrazin-8-yl]amino]-2-methylbenzoyl]piperazin-1-yl]-5-oxopentanoic acid; hydrochloride] | 3.1
 | Cc1cc(Nc2nccn3c(-c4ccc(OC(F)F)cc4)cnc23)ccc1C(=O)N1CCN(C(=O)c2cccc(S(=O)(=O)O)c2)CC1 [Example 276, 3-[4-[4-[[3-[4-(difluoromethoxy)phenyl]imi-dazo[1,2-a]pyrazin-8-yl]amino]-2-methylbenzoyl]piperazine-1-carbonyl]benzenesulfonic acid] | 3.3
 | Cc1cc(Nc2nccn3c(-c4ccc(OC(F)F)cc4)cnc23)ccc1C(=O)N1CCN(C(=O)c2cccc(C(=O)O)c2)CC1 [Example 277, 3-[4-[4-[[3-[4-(difluoromethoxy)phenyl]imi-dazo[1,2-a]pyrazin-8-yl]amino]-2-methylbenzoyl]piperazine-1-carbonyl]benzoic acid] | 3.8
3.8 | COc1ccc(-c2cnc3c(Nc4ccc(C(=O)N5CCC(C(=O)NC(CN(C)C)C(=O)O)CC5)c(C)c4)nccn23)cc1F (stereo not shown) [Example 278, 3-(dimethylamino)-2-[[1-[4-[[3-(3-fluoro-4-methoxyphenyl)imidazo[1,2-a]pyrazin-8-yl]amino]-2-methylbenzoyl]piperidine-4-carbonyl]amino]propanoic acid] | 
 | Cc1cc(Nc2nccn3c(-c4ccc(OC(F)F)cc4)cnc23)ccc1C(=O)N1CCN(C(=O)c2ccc(C(=O)O)cc2)CC1 [Example 280, 4-[4-[4-[[3-[4-(difluoromethoxy)phenyl]imi-dazo[1,2-a]pyrazin-8-yl]amino]-2-methylbenzoyl]piperazine-1-carbonyl]benzoic acid] | 4.5
 | Cc1cc(Nc2nccn3c(-c4ccc(OC(F)F)cc4)cnc23)ccc1C(=O)N1CCN(C(=O)CN(C)CC(=O)O)CC1 [Example 281, 2-[[2-[4-[4-[[3-[4-(difluoromethoxy)phenyl]imi-dazo[1,2-a]pyrazin-8-yl]amino]-2-methylbenzoyl]piperazin-1-yl]-2-oxoethyl]-methylamino]acetic acid] | 4.7
0.071 | COc1ccc(-c2cnc3c(Nc4ccc(C(=O)N5CCC(C(=O)NCC6(O)CNC6)CC5)c(C)c4)nccn23)c(F)c1F [Example 285, 1-[4-[[3-(2,3-difluoro-4-methoxyphenyl)imidazo[1,2-a]pyrazin-8-yl]amino]-2-methylbenzoyl]-N-[(3-hydroxyazetidin-3-yl)methyl]piperidine-4-carboxamide] | 
 | COc1ccc(-c2cnc3c(Nc4ccc(C(=O)N5CCC(C(=O)NCC6(O)CCNC6)CC5)c(C)c4)nccn23)c(F)c1F (stereo not shown) [Example 286, 1-[4-[[3-(2,3-difluoro-4-methoxyphenyl)imidazo[1,2-a]pyrazin-8-yl]amino]-2-methylbenzoyl]-N-[(3-hydroxypyrrolidin-3-yl)methyl]piperidine-4-carboxamide; hydrochloride] | 0.073
 | COc1ccc(-c2cnc3c(Nc4ccc(C(=O)N5CCC(C(=O)NCC(O)CN)CC5)c(C)c4)nccn23)c(F)c1F (stereo not shown) [Example 291, N-(3-amino-2-hydroxypropyl)-1-[4-[[3-(2,3-difluoro-4-methoxyphenyl)imidazo[1,2-a]pyrazin-8-yl]amino]-2-methylbenzoyl]piperidine-4-carboxamide; hydrochloride] | 0.11

From patent publication US20230011869A1 (Hoffmann-La Roche Inc., priority 2018, published 2023)
